Reference: patent publication US20090216187A1, “Method of Treatment of Vascular Diseases” (priority 2008, published 2009)
Read-outs that look alike come from different tables or passages of the source.

Legend:
[1] = renal elimination after incorporation (animal experimental data); format: in vivo
From the text: To date one accidental Rhenium-188 incorporation caused by balloon rupture has been reported. The measured total body dose of the treated patient was 113 mGy (image-based analysis) and 88 mGy (biological analysis), respectively. Thus, the measured radiation exposures were within the theoretical calculated ranges. [Paeng J. C., Lee D. S., Kang W. J., Yang H. M., Chung J. K., Jeong J. M., Chae I. H., Lee M. M., Lee M. C. “Dosimetry in leakage of (188)Re-DTPA during intracoronary balloon brachytherapy” Eur. J. Nucl. Med. Mol. Imaging. 2003; 30(9): 1263-1265]. […] Therefore, Rhenium-188 will remain in the body for about 2 days after incorporation. In the body Rhenium-188 is mainly absorbed by the thyroid (0.0167 mGy/MBq) and the stomach (0.013 mGy/MBq) [Knapp F. F., Jr., Guhlke S., Beets A. L., Lin W. Y., Stabin M., Amols H., Weinberger J. “Endovascular beta irradiation for prevention of restenosis using solution radioisotopes: pharmacologic and dosimetric properties of rhenium-188 compounds.” Cardiovasc. Radiat. Med. 1999; 1(1): 86-97; Lin W. Y., Tsai S. C., Hsieh B. T. Lee T. W., Ting G., Wang S. J “Evaluation of three rhenium-188 candidates for intravascular radiation therapy with liquid-filled balloons to prevent restenosis” J. Nucl. Cardiol. 2000; 7(1): 37-42]. […]

[2] = patient after balloon rupture, cited from earlier work
[3] = renal elimination after incorporation; animal experimental data; cited from earlier work
[4] = cited from earlier work
[5] = subsequent oral administration of perchlorate after Rhenium-188 incorporation; cited from earlier work
[6] = complete accidental incorporation of a balloon filling of about 3 ml; cited from earlier work

Molecule: [188Re] [Rhenium-188]
- time remaining in the body after incorporation [1]: about 2 days
- measured total body dose ([2]; biological analysis): 88 mGy
- measured total body dose ([2]; image-based analysis): 113 mGy
- elimination half-life [3]: about 7 h
- absorbed dose ([4]; stomach): 0.013 mGy/MBq
- absorbed dose ([4]; thyroid): 0.0167 mGy/MBq

Molecule: [O-][Cl+3]([O-])([O-])O [perchlorate]
- whole-body radiation reduced to [5]: 38%

Molecule: Rhenium-188-DPTA
- theoretical calculated total body dose [6]: approximately 63 mGy
